Experiments:
[1] = test system: ERK; test: Western blot analysis of MAPK phosphorylation: ERK; type: cell-based, human; conditions: BCC cells, pretreatment 30 min before 4 μM 6f-UVA; oligomycin 25 μM, ATP 1×10^−4M (FIG. 6B)
Experimental: (A) After exposure to different concentration of 6f-UVA, cell lysates were collected and immunoblotted with specific antibodies as indicated. For the internal control, the same amounts of protein extract were also probed with antibody against actin. (B) As a control, the expression level of p-ERK was determined in the presence of oligomycin (25 μM) and ATP (1×10^−4M)
Total cell extracts from cultured BCC cells were obtained by lysing the cells in ice-cold RIPA buffer (1×PBS, 1% NP-40, 0.5% sodium deoxycholate, 0.1% SDS) containing 100 μg/mL PMSF, 2 μg/mL aprotinin, 2 μg/mL leupeptin and 100 μg/mL NaF. After centrifugation at 14,000 g for 30 min, protein in the supernatants was quantified by Bradford method (Bio-Rad). Forty micrograms of protein per lane was applied in 10% SDS-poly-acrylamide gel. After electrophoresis, protein was transferred from the gel to polyvinylidene difluoride (PVDF) membrane (Millipore, Bedford, Mass.). The membranes were blocked at room temperature for 1 h in PBS+0.1% Tween 20 (PBS-T) containing 5% skim milk. After being briefly rinsed with PBS-T, the blots were probed with respective primary antibodies at room temperature for 2 h or at 4° C. overnight. Rabbit polyclonal antibodies against JNK (46 kDa), p38 (38 kDa), ERK (42, 44 kDa), and mouse monoclonal antibody against p-JNK, p-p38, p-ERK were purchased from Santa Cruz Biotechnology (Santa Cruz, Calif.). Mouse monoclonal antibody against actin was purchased from Chemicon Int. Inc. (Temecula, Calif.). For the blocking test, 25 μM oligomycin (Sigma, a mitochondria-specific F0F1 ATP synthase inhibitor) or 1×10^−4M ATP (Sigma) was added to the media 30 min before treated with 6f-UVA, respectively. The membrane was incubated with the corresponding horseradish peroxidase-labeled secondary antibody (Santa Cruz Biotechnology) at room temperature for 1 h. […] The relative amounts of specific proteins were quantified by densitometry scanning of X-ray films and analyzed by Eagle Eye Image System (Stratagene, La Jolla, Calif.)

[2] = test system: BCC cells; test: Sub-G1 region analysis (PI, flow cytometry); type: cell-based, human; conditions: 4 μM for 4 hours, 1 J/cm^2 UVA, 24 h after irradiation
Experimental: BCC cells were treated with compounds at 4 μM and 1 J/cm^2 UVA. Twenty-four hours after irradiation, cells were harvested by trypsinization and centrifugation. Cell pellets were resuspended in 50% cold ethanol and fixed at −20° C. After fixation, cells were washed once with cold PBS and incubated in 0.5 mL of PBS containing 100 μg/mL RNase A for 20 min at 37° C. Cells were harvested by centrifugation at 400 g for 5 min, and 250 μL of PBS containing 50 μg/mL propidium iodide (PI) was added to the pellet. Thirty minutes later, the DNA contents of 10,000 events were measured by FACSscan flow cytometer (Elite ESP, Beckman Coulter, Brea, Calif.). Histograms were analyzed using Windows Multiple Document Interface software (WinMDI). Cells with DNA content less than that in untreated cells in G0/G1 were considered apoptotic. To investigate the effects of compounds 6 on cell cycle progression of BCC cells, the DNA content of cell nuclei was measured by flow cytometric analysis. […] BCC cells were treated with 4 μM agents for 4 hours followed by 1 J/cm^2 UVA irradiation. Twenty-four hours after irradiation, the PI reagent was used. Approximately 10000 cells from each group were analyzed with the FACScan flow cytometer. The apoptotic effects in 2.2% (control), 6.5% (6a), 13.4% (6b), 29.2% (6c), 24.4% (6d), 6.5% (6e), 35.4% (6f), 13.6% (6g), 13.8% (6h), 14.8% (6i) and 6.4% (6j) of sub-G1 DNA peak were obtained (% represented the percentage of cell counts).

[3] = test system: BCC cells; test: Determination of intracellular ROS level (DCFH-DA); type: cell-based, human; conditions: BCC cells treated with 4 μM 6f-UVA, catalase 800 U/mL pretreatment
Experimental: (A) 6f-UVA induced ROS generation in BCC cells. Histogram of fluorescence vs cell count in BCC cells with various concentrations of 6f-UVA and stained with DCFH-DA. As a control, ROS was measured in the presence of catalase, a H2O2 scavenger. (B) The ΔΨmt of BCC cells after exposure to 6f-UVA. Cells were treated with 0, 2, and 4 μM Formula 6f for 4 h followed by 1 J/cm2 UVA irradiation, then stained with DiOC6 and analyzed immediately by flow cytometry as described under Materials and Methods. The number in M1 indicates the percentage of cells with reduced ΔΨmt. Approximately 10000 cells from each group were analyzed by flow cytometry. (C) Relative ATP levels were calculated as the percentage of the 0 μM level. Similar results were obtained in three independent experiments. *p<0.05, ** p<0.01 as compared with the control.
To evaluate intracellular reactive oxygen species (ROS) levels, 2′,7′-dichlorofluorescein diacetate (DCFH-DA, Molecular Probes) fluorescent dye was used to clarify this issue. The nonpolar DCFH-DA is converted to the polar derivative DCFH by esterases when it is taken up by the cell. DCFH is nonfluorescent but is rapidly oxidized to the highly fluorescent DCF by intracellular H2O2 or nitric oxide. […] The fluorescence of the samples was measured with a flow cytometer. The 2′,7′-dichlorofluorescein (DCF) data were recorded using FL-1 photomultiplier.

| Molecule | ERK activation after pretreatment [1] | sub-G1 DNA peak (apoptotic effects, percentage of cell counts) [2] | melting point | effect of catalase on increased ROS production [3] |
| --- | --- | --- | --- | --- |
| Nc1ncnc2c1ncn2[C@@H]1O[C@H](COP(=O)(O)OP(=O)(O)OP(=O)(O)O)[C@@H](O)[C@H]1O [ATP] | not ATP increased the ERK activation | – | – | – |
| Nc1ccc(-c2nc3ccccc3s2)cc1 [Formula 6a, 2-(4-Aminophenyl)benzothiazole] | – | 6.5% | – | – |
| Cc1ccc2nc(-c3ccc(N)cc3)sc2c1 [Formula 6b, 2-(4-Aminophenyl)-6-methylbenzothiazole] | – | 13.4% | – | – |
| CCc1ccc2nc(-c3ccc(N)cc3)sc2c1 [Formula 6c, 2-(4-Aminophenyl)-6-ethylbenzothiazole] | – | 29.2% | 154 to 156 °C | – |
| COc1cccc2nc(-c3ccc(N)cc3)sc12 [Formula 6d, 2-(4-Aminophenyl)-7-methoxybenzothiazole] | – | 24.4% | 142 to 144 °C | – |
| COc1ccc2nc(-c3ccc(N)cc3)sc2c1 [Formula 6e, 2-(4-Aminophenyl)-6-methoxybenzothiazole] | – | 6.5% | – | – |
| Cc1cc(-c2nc3ccccc3s2)ccc1N [Formula 6g, 2-(4-Amino-3-methylphenyl)benzothiazole] | – | 13.6% | – | – |
| CCc1ccc2nc(-c3ccc(N)c(C)c3)sc2c1 [Formula 6h, 2-(4-Amino-3-methylphenyl)-6-ethylbenzothiazole] | – | 13.8% | 171 to 173 °C | – |
| COc1ccc2nc(-c3ccc(N)c(C)c3)sc2c1 [Formula 6i, 2-(4-Amino-3-methylphenyl)-6-methoxybenzothiazole] | – | 14.8% | 151 to 153 °C | – |
| Cc1cc(-c2nc3ccc(C(F)(F)F)cc3s2)ccc1N [Formula 6j, 2-(4-Amino-3-methylphenyl)-6-trifluoromethylbenzothiazole] | – | 6.4% | 152 to 154 °C | – |
| CC[C@H]1/C=C/C=C/C[C@@H](C)[C@H](O)[C@@](C)(O)C(=O)[C@@H](C)[C@H](O)[C@@H](C)C(=O)[C@@H](C)[C@H](O)[C@@H](C)/C=C/C(=O)O[C@@H]2[C@H](C)[C@H](CC1)O[C@]1(CC[C@H](C)[C@H](C[C@@H](C)O)O1)[C@H]2C [oligomycin] | increased the ERK activation | – | – | – |
| catalase: an effective H2O2 scavenger (Sigma) (protein, UniProt P00432 2-527, looked up) Catalase: ADNRDPASDQMKHWKEQRAAQKPDVLTTGGGNPVGDKLNSLTVGPRGPLLVQDVVFTDEMAHFDRERIPERVVHAKGAGAFGYFEVTHDITRYSKAKVFEHIGKRTPIAVRFSTVAGESGSADTVRDPRGFAVKFYTEDGNWDLVGNNTPIFFIRDALLFPSFIHSQKRNPQTHLKDPDMVWDFWSLRPESLHQVSFLFSDRGIPDGHRHMNGYGSHTFKLVNANGEAVYCKFHYKTDQGIKNLSVEDAARLAHEDPDYGLRDLFNAIATGNYPSWTLYIQVMTFSEAEIFPFNPFDLTKVWPHGDYPLIPVGKLVLNRNPVNYFAEVEQLAFDPSNMPPGIEPSPDKMLQGRLFAYPDTHRHRLGPNYLQIPVNCPYRARVANYQRDGPMCMMDNQGGAPNYYPNSFSAPEHQPSALEHRTHFSGDVQRFNSANDDNVTQVRTFYLKVLNEEQRKRLCENIAGHLKDAQLFIQKKAVKNFSDVHPEYGSRIQALLDKYNEEKPKNAVHTYVQHGSHLSAREKANL | – | – | – | significantly abrogated |

From US8592603B2, “Synthesis of 2-(4-aminophenyl) benzothiazole derivatives and use thereof” (Kaohsiung Medical University, priority 2011, dated 2013)
